For one series, the system named is IKs. As to conditions: experimental models in dogs; cited from earlier work.
The test system of another series is IKr. The conditions noted are these: E4031 0.5 μM; cited from earlier work.
Series [1] relates to rabbit left ventricular wedge preparation. The conditions noted are these: 100 μM.
Experimental: Shown are floating microelectrode recordings from an M cell in the subendocardial region of the wedge preparation and an ECG recorded across the bath.
Rabbits weighing 2.5 3.5 kg may be anticoagulated with heparin and anesthetized with pentobarbital (30-35 mg/kg, i.v.). Transmural wedges with dimensions of approximately 2×1.5×0.9 cm to 3×2×1.5 cm may be dissected from the left ventricle. The tissue may be cannulated via a small (diameter ˜100 μm) native branch of the left descending coronary artery and perfused with cardioplegic solution. Unperfused tissue may be carefully removed using a razor blade. […] A transmural ECG may be recorded using electrodes consisting of AgCl half cells attached to Tyrode's-filled tapered polyethylene electrodes which will be placed in the Tyrode's solution bathing the preparation, 1.0 to 1.5 cm from the epicardial and endocardial surfaces of the preparation, along the same vector as the transmembrane recordings. […] Transmembrane action potentials may be simultaneously recorded from epicardial, M, and endocardial sites using three to four separate intracellular floating microelectrodes (DC resistance: 10 to 20 MΩ) filled with 2.7 M KCl and connected to a high-input impedance amplifier. […]
In the next series the test system is LQT2. As to conditions: cited from earlier work.
In another series the test system is α1-adrenoreceptor. As to conditions: infusion, patient with LQTS; cited from earlier work.
In another series the test system is α1-adrenoreceptors. The conditions noted are these: cited from earlier work.
The subject of the next series is WT rabbits. The conditions noted are these: Carlsson rabbit model; cited from earlier work.

Turning to `CCS(=O)(=O)N(C)[C@H]1c2cc(C#N)ccc2OC(C)(C)[C@@H]1O` (racemic) [chromanol 293B], in the series on IKs, the “TdP, spontaneous or in response to program stimulation” value was “never produced TdP”. With `Cc1cccc(CCN2CCC(C(=O)c3ccc(NS(C)(=O)=O)cc3)CC2)n1` [E4031, Benzenesulfonamide E-4031], in the series with IKr, the APD was > 1 s and the “apex-to-base dispersion of repolarization” value is given as “marked enhancement of the apex-to-base dispersion of repolarization with reversal of repolarization”. `CC(C)NC[C@@H](O)c1ccc(NS(C)(=O)=O)cc1` [d-sotalol]: in series [1], the “Action potential duration at 90% repolarization (APD90)” value was found to be 427 ms and the QT interval worked out at 467 ms. `CC(C)NCC(O)c1ccc(O)c(O)c1` (centres unmarked) [isoproterenol]: the “duration of transient increase in TDR” value with LQT2 is recorded as “less than 2 minutes”.

`COc1ccc(OC)c(C(O)C(C)N)c1` (centres unmarked) [methoxamine]: the QTc result in the series on α1-adrenoreceptor is reported as “prolong the QTc”. Besides, the “APD90 in tissues from the M region” value with α1-adrenoreceptors (canine wedge preparations) was “abbreviation of APD90”. Further, the “APD90 in Purkinje fibers” value in the series with α1-adrenoreceptors (canine) was “dose- and rate-dependent prolongation of APD90”. On to `COc1cc2nc(N3CCN(C(=O)c4ccco4)CC3)nc(N)c2cc1OC` [prazosin], for which the “suppression of arrhythmias by pretreatment” value with WT rabbits was “as effective as pretreatment with propranolol in suppressing the arrhythmias”. As to `CC(C)NCC(O)COc1cccc2ccccc12` (centres unmarked) [propranolol], the “suppression of arrhythmias by pretreatment” value in the series on WT rabbits is listed as “suppressing the arrhythmias”.

These data come from US7718846B2, “Animal models of long QT syndrome and uses thereof” (priority 2005, dated 2010).
